These results are taken from article PMC6995600, “Effects of Synergistic Inhibition on α-glucosidase by Phytoalexins in Soybeans” (Biomolecules, 2019).

Like-named read-outs stand apart in the source and are kept apart here.

Test [1] deals with T1, α-Glucosidase (from baker’s yeast) (Saccharomyces cerevisiae, UniProt P53341).
T1 construct: purchased Sigma-Aldrich #63231-63-0
Kind of test: biochemical. Here is the method: The activity of α-glucosidase was measured as described previously, with slight modifications. In brief, sodium phosphate buffer (0.1 M) was adjusted to 0.1 N HCl to pH 7.0 with a pH meter (Thermo Fisher Scientific Inc., Waltham, MA, USA). Solutions of pNPG (10 mM) and α-glucosidase (1 U/mL) were solubilized in 0.1 M sodium phosphate buffer (pH 7.0). All reagents were prepared shortly before use and warmed to 37 °C in a water bath (Il-shin Biobase, Pocheon, Korea). […] The substrate, pNPG (N1377, Sigma), was added into each well to a final concentration of 1 mM in a total volume of 200 μL, and 100 μL of α-glucosidase (1 U/mL) per well was then added. […] The absorbance values were plotted against time, and the rate (velocity) of product generation (α-glucosidase activity) was calculated from the linear range of the graph.

Test [2] concerns the target T1, α-Glucosidase (from baker’s yeast). Kind of test: Enzyme kinetics for α-glucosidase (Michaelis–Menten, Lineweaver–Burk, Dixon plot). The format is biochemical. The settings on record: for Mode of Inhibition: Lineweaver–Burk plots. Here is the method: The enzyme reaction was performed according to the above reaction conditions with polyphenols at various concentrations (1–30 μM). pNPG (1 mM) was added with polyphenols in 96-well plates, and α-glucosidase (1 U/mL) was added to initiate the enzyme reaction. The absorbances for each concentration of pNPG were then obtained by spectrophotometry (Victor3, PerkinElmer, Waltham, MA, USA). The inhibition modes of the polyphenols were determined using Michaelis–Menten and Lineweaver–Burk equations [23, 24]. The inhibition constant Ki is an indication of the potency of an inhibitor and equals the concentration required to produce half-maximal inhibition and can be determined by a Dixon plot. […] The αKi value is the inhibitor constant when the inhibitor (I) occupies the enzyme–substrate (ES) complex.
To define the mode of inhibition of the polyphenols, enzyme kinetics were performed with designated concentrations of pNPG. The maximum velocity (Vmax) for α-glucosidase was calculated from the nonlinear regression curve with five different concentrations of substrate (Figure 2). To determine the inhibition modes, Lineweaver–Burk plots were constructed for each of the inhibition modes, and the most suitable mode was selected using SigmaPlot 10.0 software.
Meanwhile, the inhibitor constant Ki indicates the potency of an inhibitor and is expressed as the concentration required to produce half-maximal inhibition and is determined by a Dixon plot. The initial slope v was determined for each concentration of each polyphenol. The reciprocal velocity (1/v) versus the […] (for 0.25, 0.5, 1, and 2 mM pNPG) was plotted. A single regression line for each concentration of the substrate was obtained, and Ki was calculated from the intersection of the four lines.

Test [3] shares this target. Kind of test: biochemical. Here is the method:
Synergistic effects on α-glucosidase inhibition were measured using the same methods as above. […] We calculated the IC50 values of each polyphenol and the combinations, and we used the statistical differences of these values to assess synergistic effects.
This is another data set of the same source.

The test system of the next test is α-glucosidase. On the set-up: method as in PMID 24083955. The settings on record: 2 μM; cited from earlier work.
Where [4] appears, read: pNPG 1 mM, pH 7.0, 37 °C, read-out: half-maximal inhibitory concentrations (IC50).
Setting [5] is: Substrate PNPG 0.125 mM, read-out: IC50.
Setting [6] is: Substrate PNPG 0.25 mM, read-out: IC50.
The mark [7] stands for this setting: Substrate PNPG 0.5 mM, read-out: IC50.
[8] abbreviates: Substrate PNPG 1 mM, read-out: IC50.

T1 sequence (P53341 whole entry): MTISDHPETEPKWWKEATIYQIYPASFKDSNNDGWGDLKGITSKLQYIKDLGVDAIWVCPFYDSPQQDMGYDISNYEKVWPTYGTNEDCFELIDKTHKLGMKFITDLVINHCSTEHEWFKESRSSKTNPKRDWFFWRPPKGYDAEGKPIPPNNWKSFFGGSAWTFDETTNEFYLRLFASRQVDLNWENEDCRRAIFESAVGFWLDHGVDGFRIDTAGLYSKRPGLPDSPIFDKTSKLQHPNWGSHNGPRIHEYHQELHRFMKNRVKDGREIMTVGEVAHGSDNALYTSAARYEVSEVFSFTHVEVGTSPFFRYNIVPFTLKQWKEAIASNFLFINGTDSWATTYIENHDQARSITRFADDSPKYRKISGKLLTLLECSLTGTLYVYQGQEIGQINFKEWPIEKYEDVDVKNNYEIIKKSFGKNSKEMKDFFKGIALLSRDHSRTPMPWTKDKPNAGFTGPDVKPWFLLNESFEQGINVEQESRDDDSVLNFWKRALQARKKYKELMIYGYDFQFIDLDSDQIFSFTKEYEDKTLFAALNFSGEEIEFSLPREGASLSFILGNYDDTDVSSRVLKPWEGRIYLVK

For the molecule `O=c1cc(-c2ccc(O)c(O)c2)oc2cc(O)cc(O)c12` [Luteolin, luteolin], the IC50 in test [1] (setting [4]) came to 11.9 ± 1.63 µM; in test [3] (setting [5]), 18.6 ± 1.2 µM; in test [3] (setting [6]), 14.82 ± 0.01 µM; in test [3] (setting [7]), 15.4 ± 1.99 µM; in test [3] (setting [8]), 19.5 ± 1.59 µM. Further, the Ki – broadly, a measure of affinity in units of concentration, obtained from inhibition or displacement – in test [2] turned out to be 16.8 ± 9.6 µM. In addition, the “Mode of Inhibition” value in test [2] was “Mixed”.
With `C[C@H]1O[C@H](O[C@H]2[C@H](O)[C@@H](O)[C@@H](O[C@H]3[C@H](O)[C@@H](O)C(O)O[C@@H]3CO)O[C@@H]2CO)[C@H](O)[C@@H](O)[C@@H]1N[C@H]1C=C(CO)[C@@H](O)[C@H](O)[C@H]1O` (some centres unmarked) [Acarbose, acarbose, reference compound], the “Mode of Inhibition” value in test [2] is “Competitive”.
For `CC1(C)C=Cc2c(ccc3c2OC[C@@]2(O)c4ccc(O)cc4O[C@@H]32)O1` [Glyceollin, glyceollin], the IC50 in test [1] (setting [4]) was 13.2 ± 2.31 µM; in test [3] (setting [5]), 16.6 ± 3.25 µM; in test [3] (setting [6]) it was 16.57 ± 0.15 µM; in test [3] (setting [7]), 19.1 ± 0.96 µM; in test [3] (setting [8]), 33.2 ± 3.97 µM. In test [2], this molecule showed an inhibition constant Ki of 19 ± 4.45 µM. Also, the “Mode of Inhibition” value in test [2] was “Competitive”; in test [2] (listed as glyceollin) it was “competitive inhibition”.
Regarding `O=c1c2cc(O)ccc2oc2cc(O)cc(O)c12` [1,3,7-trihydroxyxanthone], the inhibition entry in the test with α-glucosidase is recorded as “approximately 15%”.
`O=c1c(-c2ccc(O)cc2)coc2cc(O)ccc12` [Daidzein, daidzein]: the IC50 was determined as 20.2 ± 6.17 µM in test [1]; 59.2 ± 6.1 µM in test [3] (IC50, Substrate PNPG 0.125 mM); 27.6 ± 2.93 µM in test [3] (IC50, Substrate PNPG 0.25 mM); 23.2 ± 1.04 µM in test [3] (IC50, Substrate PNPG 0.5 mM); 20.5 ± 1.82 µM in test [3] (IC50, Substrate PNPG 1 mM). The “Mode of Inhibition” value in test [2] is “Uncompetitive”.
